Data on three compounds can be found in patent publication US11124847B1, “Systems and methods for assessing perturbations in cellular differentiation using reporter cell lines” (priority 2017, dated 2021).

The test system of this assay is hNPC. Put plainly: Immunofluorescence staining and high-content cell analysis of differentiation markers in hNPCs differentiated after 24 hour neurotoxin treatment. It counts as cell-based, human. Conditions: for level of GFAP (glial marker): hNPC treated 24 hours. The source says: In an example, high-content cell analysis from cells grown in each well in a 96-well plate was sufficient to detect multiple markers via antibody staining and to be normalized to the DAPI signal, a common baseline measure of DNA content. […] In this example, hNPC are indicated by NESTIN (NES) and SRY-Box 2 (SOX2). Glial Fibrillary Acidic Protein (GFAP) is used as a marker of glial cells (both astrocytes and radial glia), and the neuron-specific class III β-tubulin (TUJ1) is used to indicate neurons. Expression of both GFAP and TUJ1 increased at 21 days and 50 days following differentiation, while both SOX2 and NES decreased at 21 days. Levels of SOX2 expression returned to baseline following 50 days.
A broad range of doses for each toxin was selected to determine the dose response and capture the full range to which a developing human brain may be exposed. Cultured hNPC's were treated for 24 hours to avoid complications associated with non-specific toxicity that may occur with chronic treatment, and because we were interested in whether early, acute exposure produces long-term effects detectable in our assay.

For the compound `CC(C)(c1ccc(O)cc1)c1ccc(O)cc1` [BPA, bisphenol A], the “level of GFAP (glial marker)” value reads like this: (21D time point, low to moderate doses) “increase”; (50D time point, low to moderate doses) “increase”.

Turning to `C[N+]([O-])=NCO` [MAM, methylazoxymethanol], the “level of GFAP (glial marker)” value is listed as “striking increase” (21D time point, increasing doses, vs DMSO control) and “general decrease” (50D time point, vs DMSO control). For the same compound, the “hNPC markers (NESTIN and SOX2)” value (24 hours, across doses) is on record as “clear dose-dependent increase”. The “hNPC-GLIA population (markers of hNPC and glial cells)” value is on record as “significant increase” (21 days, across increasing doses) and “decreased” (50 days). In addition, the “neuronal population (NEURON)” value by setting is: (21 days, as a function of increasing dose) “striking decrease”; (50 days) “increased”.

For the compound `CCCC(CCC)C(=O)O` [VPA, valproic acid], the “level of GFAP (glial marker)” value (across differentiation time points, compared with MAM and BPA) is “more modest effects”.
